Data as given in patent US20020022215A1 (priority 2000, published 2002).
Read-outs that look alike come from different tables or passages of the source.

Legend:
[1] = tested on: Chinese Hamster Ovary (CHO) cells
HAV = assay type: cell-based, hepatitis A virus, strain HM175; conditions: for reduction of HAV: in plasma
E. coli B [2] = assay type: cell-based, Escherichia coli B (ATCC 11303); conditions: for log10 reduction of E. coli B / percentage reduction of E. coli B: 10^−3 M in NaCl, 365 nm UV; for log10 reduction of Escherichia coli B / percentage reduction of Escherichia coli B: 365 nm light
Klebsiella oxytoca = experiment: Inactivation of Klebsiella oxytoca in human plasma; assay type: cell-based; conditions: 10^−5 M with light (FIG. 7)
coliphage MS2 = assay type: cell-based, coliphage MS2 (ATCC 15597-B1); conditions: for log10 reduction of MS2 / reduction of MS2: in NaCl, UV light
poliovirus (PV1) = assay type: cell-based, Poliovirus-1
Escherichia coli B = experiment: Initial studies: inactivation of Escherichia coli B with and without aeration of the medium; assay type: cell-based
Text: Light alone, or porphyrin alone, were ineffective.

E. coli B [3] = experiment: Inactivation of E. coli B on porphyrin-containing cellulose acetate membranes; assay type: cell-based, Escherichia coli B (ATCC 11303); conditions: cellulose acetate membranes containing the porphyrin, UV light, 100 minutes
Procedure: Cultures of E. coli B (ATCC 11303) were grown the day before an experiment to log phase growth in 50 milliliters of tryptic soy broth (TSB) followed by centrifugation at 3000 rpm for 10 minutes and at 4° C. The supernatant was drawn off and discarded and pellets were resuspended in 10 mL of 0.2 M phosphate buffered saline (PBS; pH 7.2). The centrifugation-resuspension process was repeated for a total of three times. Preparations were kept at 4° C. until ready for use. Bacterial cultures were assayed on tryptic soy agar (TSA) by spot or spread plating duplicate 0.04 to 0.1 ml volumes of the serially diluted preparation onto the agar plates, and was enumerated via colony counts after incubation overnight at 44.5° C. Results are expressed as cfu/ml. On the day of an experiment, the stock preparation was serially diluted in PBS to a target concentration of about […] E. coli cells per milliliter for use on membranes and in solution, respectively. Duplicate 0.1 ml volumes of the experimental samples were spread plated on TSA and incubated overnight at 44.5° C.
When cellulose acetate membranes containing protoporphyrin IX (disodium salt) were exposed to UV light, E. coli B was inactivated by 0.3 log10 cfu/ml in 100 minutes and by about 1.0 log10 (90%) in 300 minutes (FIG. 8).

[4] = 10^−4 M, another experiment (controls 193)
[5] = 10^−5 M, another experiment (controls 193)
[6] = 10^−4 M, six days, first experiment (controls 271)
[7] = 10^−5 M, six days, first experiment (controls 271)

CCCC[n+]1ccc(-c2c3nc(c(-c4cc[n+](CCCC)cc4)c4ccc([nH]4)c(-c4cc[n+](CCCC)cc4)c4nc(c(-c5cc[n+](CCCC)cc5)c5ccc2[nH]5)C=C4)C=C3)cc1 [TPyPH2(N-Bu), tetrakis (4-n-butylpyridiniumyl) porphyrin]
CHO colony count [1, 4]: no colony forming units detected | CHO colony count [1, 5]: 186 cfu/well | reduction of HAV (HAV; 1 minute (first of five values)): 0.1 log10 | reduction of HAV (HAV; 10 minutes (second of five values)): 1.5 log10 | reduction of HAV (HAV; 30 minutes (third of five values)): 1.6 log10 | reduction of HAV (HAV; 90 minutes (last of five values)): > 3.3 log10 | reduction of HAV (HAV; fourth of five values, its time is not given): 2.7 log10

C[n+]1ccc(-c2c3nc(c(-c4cc[n+](C)cc4)c4ccc([nH]4)c(-c4cc[n+](C)cc4)c4nc(c(-c5cc[n+](C)cc5)c5ccc2[nH]5)C=C4)C=C3)cc1.Cc1ccc(S(=O)(=O)[O-])cc1.Cc1ccc(S(=O)(=O)[O-])cc1.Cc1ccc(S(=O)(=O)[O-])cc1.Cc1ccc(S(=O)(=O)[O-])cc1 [TMPyP4, tetrakis (N-methyl-4-pyridiniumyl) porphine tetratosylate]
CHO colony count [1, 4]: no colony forming units detected | CHO colony count [1, 6]: no cells could be detected | CHO colony count [1, 5]: 183 cfu/well | CHO colony count [1, 7]: 322 cfu/well | log10 reduction of E. coli B (E. coli B [2]; 1 minute): 1.7 log10 | percentage reduction of E. coli B (E. coli B [2]; 1 minute): 98% | log10 reduction of E. coli B (E. coli B [2]; 10 minutes): 2.4 log10 | percentage reduction of E. coli B (E. coli B [2]; 10 minutes): 99.6% | log10 reduction of E. coli B (E. coli B [2]; 30 minutes): 3.7 log10 | percentage reduction of E. coli B (E. coli B [2]; 30 minutes): 99.98% | log10 reduction of E. coli B (E. coli B [2]; 90 minutes): > 5.9 log10 | E. coli B incubated in the dark, infectivity assay (E. coli B [2]; 10^−3 M in PBS, dark): not detected | infectivity of E. coli B after treatment (E. coli B [2]; 10^−5 M in PBS, with or without light, one minute (FIG. 9)): decreased below detection limits | inactivation of Klebsiella oxytoca (Klebsiella oxytoca): over 5 log10 | MS2 incubated in the dark, infectivity assay (coliphage MS2; 10^−3 M in PBS, dark): not detected | log10 reduction of MS2 (coliphage MS2; 1 minute): 0.3 log10 | reduction of MS2 (coliphage MS2; 1 minute): 50% | log10 reduction of MS2 (coliphage MS2; 10 minutes): 0.9 log10 | reduction of MS2 (coliphage MS2; 10 minutes): 87% | log10 reduction of MS2 (coliphage MS2; 60 minutes): > 3.8 log10 | reduction of MS2 (coliphage MS2; 60 minutes): > 99.98% | MS2 in the absence of light (coliphage MS2; no light (FIG. 3)): unaffected | MS2 in porphyrin/plasma mixture not exposed to LWUV (coliphage MS2; plasma, no LWUV): not detectable | poliovirus (PV1) in the absence of light (poliovirus (PV1)): unaffected | inactivation of Escherichia coli B (Escherichia coli B; 30 minutes, medium aerated by sparging with air): over 3.7 log | inactivation of Escherichia coli B, medium not aerated (Escherichia coli B; medium not aerated): No inactivation | effect of porphyrin alone on Escherichia coli B (Escherichia coli B; porphyrin alone, without light): ineffective | inactivation of HAV in water (HAV; 10^−5M in water, light, 30 min (FIG. 5)): greater than 3 logs

Cl.Cl.O=S(=O)(O)c1ccc(-c2c3nc(c(-c4ccc(S(=O)(=O)O)cc4)c4ccc([nH]4)c(-c4ccc(S(=O)(=O)O)cc4)c4nc(c(-c5ccc(S(=O)(=O)O)cc5)c5ccc2[nH]5)C=C4)C=C3)cc1 [TPPS4, meso-tetra-(4-sulfonatophenyl)-porphine dihydrochloride]
CHO colony count [1, 4]: 189 cfu/well | CHO colony count [1, 6]: 320 cfu/well | CHO colony count [1, 7]: 310 cfu/well | log10 reduction of Escherichia coli B (E. coli B [2]; 10^−5 M in PBS, 1 minute): 0.6 log10 | percentage reduction of Escherichia coli B (E. coli B [2]; 10^−5 M in PBS, 1 minute): 75% | log10 reduction of Escherichia coli B (E. coli B [2]; 10^−5 M in PBS, 10 minutes): 1.6 log10 | percentage reduction of Escherichia coli B (E. coli B [2]; 10^−5 M in PBS, 10 minutes): 97% | log10 reduction of Escherichia coli B (E. coli B [2]; 10^−5 M in PBS, 30 minutes): > 5.5 log10 | loss of infectivity of E. coli B in the absence of long-wavelength UV light (E. coli B [2]; porphyrin without long-wavelength UV light): did not result in any loss of infectivity | MS2 in the absence of light (coliphage MS2): unaffected | coliphage MS2 after 10 minutes of contact (coliphage MS2): unaffected | inactivation of coliphage MS2 in plasma (coliphage MS2): about 3 logs | initial infectious test microbes remaining at the end of each experimental period (coliphage MS2): approximately 100% | loss of infectivity without UV light (coliphage MS2): no loss of infectivity | inactivation of HAV in plasma (HAV): about 1 log | inactivation of HAV in water (HAV): 2 logs | reduction of HAV in plasma (HAV): 2 logs

C=CC1=C(C)c2cc3[nH]c(cc4nc(cc5[nH]c(cc1n2)c(C)c5CCC(=O)O)C(CCC(=O)O)=C4C)c(C)c3C=C [protoporphyrin IX]
inactivation of E. coli B (E. coli B [3]): 0.3 log10 cfu/ml
